{"source": "paper PMC4521925", "about": "“17β-Hydroxysteroid Dehydrogenase Type 2 Inhibition: Discovery of Selective and Metabolically Stable Compounds Inhibiting Both the Human Enzyme and Its Murine Ortholog” (PLoS ONE, 2015)", "key": {"m17β-HSD2": {"target": "T1, m17β-HSD2 (Mus musculus, UniProt P51658)", "T1 construct": "The microsomal fraction (m17β-HSD2) was obtained from mouse liver as described for h17β-HSD2; tissue Pharmacelsus GmbH (mouse livers); host or cells: mouse liver, microsomal fraction", "T1 sequence (P51658 1-381)": "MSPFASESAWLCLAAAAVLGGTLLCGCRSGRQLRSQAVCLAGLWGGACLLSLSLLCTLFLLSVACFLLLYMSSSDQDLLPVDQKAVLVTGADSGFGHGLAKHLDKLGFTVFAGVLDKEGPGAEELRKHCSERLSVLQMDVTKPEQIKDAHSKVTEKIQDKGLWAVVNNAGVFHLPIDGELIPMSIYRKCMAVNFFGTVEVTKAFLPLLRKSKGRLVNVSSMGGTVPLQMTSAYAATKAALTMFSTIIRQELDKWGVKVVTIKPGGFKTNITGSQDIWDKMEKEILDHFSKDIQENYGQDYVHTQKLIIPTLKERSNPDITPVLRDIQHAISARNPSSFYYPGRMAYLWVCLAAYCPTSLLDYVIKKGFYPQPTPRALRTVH", "test": "Inhibition of m17β-HSD2 in cell-free assay", "format": "biochemical", "details": "for % inh. at 1 μM m17β-HSD2: mouse liver microsomal fraction, substrate E2 [500 nM], cofactor NAD+ [1500 μM], Table 1; for inhibition at 1 µM: read-out: % inh. at 1 μM m17β-HSD2", "protocol": "(§1) h17β-HSD2, h17β-HSD1, m17β-HSD2 and m17β-HSD1 cell-free assays were performed similarly, by incubating enzyme, tritiated substrate, cofactor and inhibitor, according to described procedures.\nThe microsomal fraction (m17β-HSD2) was obtained from mouse liver as described for h17β-HSD2. Inhibitory activities were evaluated by a method identical to the one described for the human enzyme.\n(§2) Inhibitory activities were evaluated following an established method with minor modifications. Briefly, the enzyme preparation was incubated with NAD^+ [1500 μM] in the presence of potential inhibitors at 37C in a phosphate buffer (50 mM) supplemented with 20% of glycerol and EDTA 1mM. Inhibitor stock solutions were prepared in DMSO. Final concentration of DMSO was adjusted to 1% in all samples. […] After 20 min, the incubation was stopped with HgCl2 and the mixture was extracted with ether. After evaporation, the steroids were dissolved in acetonitrile/water (45:55). […] Detection and quantification of the steroids were performed using a radioflow detector (Berthold Technologies, Bad Wildbad). […] Each value was calculated from at least two independent experiments."}, "h17β-HSD1": {"target": "T2, h17β-HSD1 (Homo sapiens, UniProt P14061)", "T2 construct": "h17β-HSD1 was obtained after precipitation with ammonium sulfate from the cytosolic fraction; from tissue; host or cells: human placenta, cytosolic fraction", "T2 sequence (P14061 1-328)": "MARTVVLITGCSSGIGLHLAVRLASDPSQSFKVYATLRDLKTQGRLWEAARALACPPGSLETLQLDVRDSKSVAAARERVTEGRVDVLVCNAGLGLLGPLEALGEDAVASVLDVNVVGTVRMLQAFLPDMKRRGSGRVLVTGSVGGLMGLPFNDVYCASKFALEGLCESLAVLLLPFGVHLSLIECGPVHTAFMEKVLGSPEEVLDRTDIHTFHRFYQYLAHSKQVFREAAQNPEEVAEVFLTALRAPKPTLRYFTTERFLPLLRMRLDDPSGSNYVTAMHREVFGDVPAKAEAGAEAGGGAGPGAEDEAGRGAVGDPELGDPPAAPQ", "test": "Inhibition of h17β-HSD1 in cell-free assay", "format": "biochemical", "details": "human placental cytosolic fraction, substrate E1 [500 nM], cofactor NADH [500 μM]; for inhibition at 1 µM: read-out: % inh. at 1 μM h17β-HSD1", "protocol": "as §1\n(§3) Cytosolic (h17β-HSD1) and microsomal (h17β-HSD2) fractions were obtained from human placenta according to previously described procedures. Fresh tissue was homogenized and the enzymes were separated from the mitochondria, cell membrane. Nucleus and other rests by fractional centrifugation at 1000 g, 10.000 g and 150.000 g. The pellet fraction containing the microsomal h17β-HSD2 was used for the determination of h17β-HSD2 inhibition, while h17β-HSD1 was obtained after precipitation with ammonium sulfate from the cytosolic fraction for use of testing of h17β-HSD1 inhibition. Aliquots containing h17β-HSD1 or h17β-HSD2 were stored frozen.\nThe 17β-HSD1 inhibition assay was performed similarly to the h17β-HSD2 test. The human cytosolic enzyme was incubated with NADH [500 μM] while the mouse recombinant enzyme was reacted with NADPH [500 μM].Test compound and a mixture of unlabelled- and [^3H]-E1 (final concentration: 500 nM, 0.15 μCi) were added and mixed for 10 min at 37°C. Further treatment of the samples and HPLC separation was carried out as mentioned above for h17β-HSD2."}, "h17β-HSD2": {"target": "T3, h17β-HSD2 (Homo sapiens, UniProt P37059)", "T3 sequence (P37059 1-387)": "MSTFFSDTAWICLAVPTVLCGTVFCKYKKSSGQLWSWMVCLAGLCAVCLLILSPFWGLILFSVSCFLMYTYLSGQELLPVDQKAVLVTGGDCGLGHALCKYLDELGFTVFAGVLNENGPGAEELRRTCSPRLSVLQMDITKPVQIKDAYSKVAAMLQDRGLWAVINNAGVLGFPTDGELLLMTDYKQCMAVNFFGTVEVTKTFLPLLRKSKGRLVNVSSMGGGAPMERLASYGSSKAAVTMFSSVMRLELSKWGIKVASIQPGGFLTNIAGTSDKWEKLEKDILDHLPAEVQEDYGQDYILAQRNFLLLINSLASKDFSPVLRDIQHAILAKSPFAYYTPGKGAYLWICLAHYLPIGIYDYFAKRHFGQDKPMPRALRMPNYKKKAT", "test": "Inhibition of h17β-HSD2 in cell-free assay", "format": "biochemical", "parameters": "from tissue; host or cells: human placenta, microsomal fraction", "details": "for inhibition at 1 µM: read-out: % inh. at 1 μM h17β-HSD2; for s.f. (selectivity factor) = IC50(17β-HSD1)/IC50(17β-HSD2): human enzymes, cell-free", "protocol": "as §1, §3, §2"}}, "data": [{"molecule": "Cc1cccc(-c2ccc(C(=O)N(C)c3cccc(C)c3)s2)c1", "note": "[Compound 1b]", "values": [{"measurement": "% inh. at 1 μM m17β-HSD2", "setting": "m17β-HSD2", "result": 42, "unit": "%"}]}, {"molecule": "COc1cccc(N(C)C(=O)c2ccc(-c3ccccc3OC)s2)c1", "note": "[Compound 1d]", "values": [{"measurement": "% inh. at 1 μM m17β-HSD2", "setting": "m17β-HSD2", "result": 19, "unit": "%"}]}, {"molecule": "CN(C(=O)c1ccc(-c2ccccc2O)s1)c1cccc(O)c1", "note": "[Compound 1f]", "values": [{"measurement": "% inh. at 1 μM m17β-HSD2", "setting": "m17β-HSD2", "result": 18, "unit": "%"}]}, {"molecule": "COc1cccc(N(C)C(=O)c2ccc(-c3cccc(F)c3)s2)c1", "note": "[Compound 1h]", "values": [{"measurement": "% inh. at 1 μM m17β-HSD2", "setting": "m17β-HSD2", "result": "n.i. (n.i.: no inhibition, i.e., inhibition ≤10%)"}]}, {"molecule": "COc1cccc(N(C)C(=O)c2ccc(-c3ccc(C#N)cc3)s2)c1", "note": "[Compound 1i]", "values": [{"measurement": "% inh. at 1 μM m17β-HSD2", "setting": "m17β-HSD2", "result": "n.i. (n.i.: no inhibition, i.e., inhibition ≤10%)"}]}, {"molecule": "Cc1cccc(-c2ccc(C(=O)N(C)c3cccc(C)c3)cc2)c1", "note": "[Compound 3a]", "values": [{"measurement": "inhibition at 1 µM", "setting": "m17β-HSD2", "result": 50, "unit": "%"}]}, {"molecule": "COc1ccc(-c2cccc(C(=O)N(C)c3cccc(OC)c3)c2)cc1", "note": "[Compound 4b]", "values": [{"measurement": "% inh. at 1 μM m17β-HSD2", "setting": "m17β-HSD2", "result": 11, "unit": "%"}]}, {"molecule": "CN(C(=O)c1cccc(-c2cccc(O)c2)c1)c1cccc(O)c1", "note": "[Compound 4c]", "values": [{"measurement": "% inh. at 1 μM m17β-HSD2", "setting": "m17β-HSD2", "result": "n.i. (n.i.: no inhibition, i.e., inhibition ≤10%)"}]}, {"molecule": "COc1cccc(CN(C)C(=O)c2cccc(-c3cccc(OC)c3)c2)c1", "note": "[Compound 4d]", "values": [{"measurement": "% inh. at 1 μM m17β-HSD2", "setting": "m17β-HSD2", "result": "n.i. (n.i.: no inhibition, i.e., inhibition ≤10%)"}]}, {"molecule": "CN(Cc1cccc(O)c1)C(=O)c1cccc(-c2ccc(O)cc2)c1", "note": "[Compound 4f]", "values": [{"measurement": "% inh. at 1 μM m17β-HSD2", "setting": "m17β-HSD2", "result": 22, "unit": "%"}]}, {"molecule": "CN(C(=O)c1ccc(-c2cccc(O)c2)cc1)c1cccc(O)c1", "note": "[Compound 7, 3'-Hydroxy-N-(3-hydroxyphenyl)-N-methyl-[1,1'-biphenyl]-4-carboxamide]", "values": [{"measurement": "inhibition at 1 µM", "setting": "m17β-HSD2", "result": 42, "unit": "%"}, {"measurement": "inhibition at 1 µM", "setting": "h17β-HSD1", "result": 15, "unit": "%"}, {"measurement": "melting point", "result": "168 to 171", "unit": "°C"}, {"measurement": "inhibition at 1 µM", "setting": "h17β-HSD2", "result": 36, "unit": "%"}]}, {"molecule": "COc1cccc(N(C)C(=O)c2ccc(-c3ccccc3)cc2)c1", "note": "[Compound 8a, N-(3-methoxyphenyl)-N-methyl-[1,1'-biphenyl]-4-carboxamide]", "values": [{"measurement": "inhibition at 1 µM", "setting": "m17β-HSD2", "result": 48, "unit": "%"}, {"measurement": "inhibition at 1 µM", "setting": "h17β-HSD1", "result": 22, "unit": "%"}, {"measurement": "melting point", "result": "102 to 104", "unit": "°C"}, {"measurement": "inhibition at 1 µM", "setting": "h17β-HSD2", "result": 51, "unit": "%"}]}, {"molecule": "COc1cccc(N(C)C(=O)c2ccc(-c3ccccc3OC)cc2)c1", "note": "[Compound 9a, 2'-Methoxy-N-(3-methoxyphenyl)-N-methyl-[1,1'-biphenyl]-4-carboxamide]", "values": [{"measurement": "inhibition at 1 µM", "setting": "m17β-HSD2", "result": 33, "unit": "%"}, {"measurement": "inhibition at 1 µM", "setting": "h17β-HSD1", "result": "< 10", "unit": "%"}, {"measurement": "inhibition at 1 µM", "setting": "h17β-HSD2", "result": 50, "unit": "%"}]}, {"molecule": "COc1ccc(N(C)C(=O)c2ccc(-c3cccc(OC)c3)cc2)cc1", "note": "[Compound 11a, 3'-Methoxy-N-(4-methoxyphenyl)-N-methyl-[1,1'-biphenyl]-4-carboxamide]", "values": [{"measurement": "inhibition at 1 µM", "setting": "m17β-HSD2", "result": 58, "unit": "%"}, {"measurement": "inhibition at 1 µM", "setting": "h17β-HSD1", "result": "< 10", "unit": "%"}, {"measurement": "inhibition at 1 µM", "setting": "h17β-HSD2", "result": 27, "unit": "%"}]}, {"molecule": "COc1ccc(-c2ccc(C(=O)N(C)c3ccc(OC)cc3)cc2)cc1", "note": "[Compound 12a, 4'-Methoxy-N-(4-methoxyphenyl)-N-methyl-[1,1'-biphenyl]-4-carboxamide]", "values": [{"measurement": "inhibition at 1 µM", "setting": "m17β-HSD2", "result": 62, "unit": "%"}, {"measurement": "inhibition at 1 µM", "setting": "h17β-HSD1", "result": "< 10", "unit": "%"}, {"measurement": "melting point", "result": "129 to 132", "unit": "°C"}, {"measurement": "inhibition at 1 µM", "setting": "h17β-HSD2", "result": 19, "unit": "%"}]}, {"molecule": "COc1cccc(N(C)C(=O)c2ccc(-c3cccc(F)c3)cc2)c1", "note": "[Compound 13a, 3'-Fluoro-N-(3-methoxyphenyl)-N-methyl-[1,1'-biphenyl]-4-carboxamide]", "values": [{"measurement": "inhibition at 1 µM", "setting": "m17β-HSD2", "result": 57, "unit": "%"}, {"measurement": "IC50", "setting": "h17β-HSD1", "result": 8, "unit": "µM"}, {"measurement": "melting point", "result": "97 to 100", "unit": "°C"}, {"measurement": "IC50", "setting": "h17β-HSD2", "result": 1, "unit": "µM"}, {"measurement": "s.f. (selectivity factor) = IC50(17β-HSD1)/IC50(17β-HSD2)", "setting": "h17β-HSD2", "result": 8}]}, {"molecule": "COc1cccc(N(C)C(=O)c2ccc(-c3ccc(OC)c(OC)c3)cc2)c1", "note": "[Compound 16a, 3',4'-Dimethoxy-N-(3-methoxyphenyl)-N-methyl-[1,1'-biphenyl]-4-carboxamide]", "values": [{"measurement": "inhibition at 1 µM", "setting": "m17β-HSD2", "result": 52, "unit": "%"}, {"measurement": "IC50", "setting": "h17β-HSD1", "result": 85.5, "unit": "µM"}, {"measurement": "melting point", "result": "153 to 156", "unit": "°C"}, {"measurement": "IC50", "setting": "h17β-HSD2", "result": 0.52, "unit": "µM"}, {"measurement": "s.f. (selectivity factor) = IC50(17β-HSD1)/IC50(17β-HSD2)", "setting": "h17β-HSD2", "result": 164}]}, {"molecule": "COc1cccc(N(C)C(=O)c2ccc(-c3ccc(F)c(F)c3)cc2)c1", "note": "[Compound 18a, 3',4'-Difluoro-N-(3-methoxyphenyl)-N-methyl-[1,1'-biphenyl]-4-carboxamide]", "values": [{"measurement": "inhibition at 1 µM", "setting": "h17β-HSD1", "result": "< 10", "unit": "%"}, {"measurement": "inhibition at 1 µM", "setting": "h17β-HSD2", "result": 31, "unit": "%"}]}, {"molecule": "COc1cccc(C(=O)N(C)c2ccc(-c3cccc(OC)c3)cc2)c1", "note": "[Compound 24a, 3-Methoxy-N-(3'-methoxy-[1,1'-biphenyl]-4-yl)-N-methylbenzamide]", "values": [{"measurement": "inhibition at 1 µM", "setting": "h17β-HSD1", "result": "< 10", "unit": "%"}, {"measurement": "inhibition at 1 µM", "setting": "h17β-HSD2", "result": 11, "unit": "%"}]}]}
